Experiments:
[1] = tested on: tobacco dark fired cultivar KY 160 (non-GE control); assay: Yield assay, 2,4-D sprayed on non-transgenic tobacco; assay type: in vivo, Nicotiana tabacum; settings: isooctyl ester formulation; for Plant Yield / Corrected Leaf Yield / Corrected Plant Yield / Leaf Yield: dry matter 21 days after spraying; for Percent Leaf Yield: 21 days after spraying
Protocol: The use of exogenously supplied synthetic auxins on agronomic crops to elicit direct non-herbicidal effects, with an emphasis on the potential enhancement of yield, was assessed using genetically-engineered (GE) tobacco plant lines expressing synthetic auxin metabolizing genes. Non-GE controls were used, permitting separation of the herbicidal and biological properties of the exogenously supplied synthetic auxins. Tobacco was utilized to model dry matter yield.
The research was conducted in a single phase entailing characterization of response variables when plants were subjected to maximum (1× rate=1 pound/acre of active ingredient) and low (¼×=4 ounces/acre of active ingredient) rates of exogenously applied 2,4-dichlorophenoxyacetic acid (2,4-D). GE lines of tobacco (dark fired cultivar “KY 160”) expressing a synthetic gene for auxin metabolism (SAD1 or SAD2) were used, along with non-GE lines of the same genotype as control material. Commercial tobacco production has long utilized decapitation (“topping”) to initiate a predictable increase in leaf weight, thickness, and dry matter yield. This yield increase is dependent upon variables, such as genotype and fertility. By utilizing controls of the same genotype and a fixed level of fertility, significant yield variation responses should be attributable to the treatment (exogenous auxin herbicide application).
The overall experimental design was comprised of three parallel completely randomized designs with spray rate and genotype as the main factors. Three replications were performed for each treatment within each experiment. Each replication was the average measurement of six plants. The tobacco lines were allowed to advance to the 6-8 leaf stage. Upon reaching this stage, the primary meristem was removed along with lower leaves so that only 4 leaves remained. Plants were then sprayed with herbicide and permitted to grow for an additional 21 days. At the end of this period, dry matter yields for both leaf and the whole plant were measured.
Yield data recorded for tobacco were leaf dry matter, leaf number, and total dry matter. Corrected plant yield and corrected leaf yield were calculated for each replication as the leaf dry matter divided by leaf number then multiplied by the expected number of leaves (6 plants×4 leaves=24). This corrected leaf yield was then added to stem yield fraction (arrived at by subtracting actual leaf yield from total plant yield) to create a corrected total plant yield. All tobacco yield measurements were recorded in grams after a 7-day drying period in ambient air dryers.
Seed of non-transgenic tobacco lines were germinated on MS03 (MS salts, B5 vitamins, 3% sucrose) medium. Transgenic seeds were germinated on the same medium augmented with 300 mg/L kanamycin monosulfate to allow detection of any seedlings failing to carry the transgene. Thirty days after germination, seedlings were transplanted to the greenhouse into flats holding 8 trays of 6 plants each for a total of 48 plants. Plants were permitted to grow for approximately 45 days, at which time 6-8 leaves had developed. Prior to spraying, the top of the plant retaining the uppermost two leaves was removed (decapitated) resulting in the retention of 4 fully-extended leaves for each plant.
For spray assays and for the yield studies, spraying was performed in an Allen Machine Works Spray Cabinet. Spray rates were established as the equivalent of 16 ounces of active ingredient per acre (1× rate), 4 ounces active ingredient/acre (¼× rate), and the control (no active ingredient per acre or 0×). The herbicide used was 2,4-D, isooctyl ester formulation (3.9 pounds of active ingredient/gallon) at equivalent rates noted above. To achieve this equivalent 1× field rate, 500 microliters of herbicide were diluted into a total volume of 50 ml. The ¼× field rate was achieved by diluting 125 microliters of herbicide in a 50 ml volume. […]

[2] = tested on: Plants expressing the dioxygenase encoded by the tfdA gene; assay: Herbicide tolerance of plants expressing the tfdA dioxygenase; assay type: in vivo; settings: found by applicant
From the text: See, e.g., Llewellyn and Last, in Herbicide-Resistant Crops Chapter 10, pages 159-174 (Duke, ed., CRC Lewis Publishers 1996). Preferably, additional bacterial codons of the tfdA coding sequence are replaced by plant-preferred codons to obtain better expression of the encoded dioxygenase. […] See, e.g., Llewellyn and Last, in Herbicide-Resistant Crops Chapter 10, pages 159-174 (Duke, ed., CRC Lewis Publishers 1996) and U.S. Pat. Nos. 6,100,446 and 6,153,401.

[3] = tested on: tomato genotype UC82L (control); assay: Fruit yield assay, 2,4-D sprayed on non-transgenic tomato; assay type: in vivo, Lycopersicon esculentum; settings: for Total Yield (Fresh Fruit Yield) / Fruit Weight (Average Fresh Fruit Weight) / Total Flowers / Fruit per Plant / Total Fruit No.: UC82L; for Total Yield (Fresh Fruit Yield): harvested over 60 days; for Fruit Weight (Average Fresh Fruit Weight) / Total Flowers / Fruit per Plant / Total Fruit No.: 60 days; for Total Flowers: Flower Number/plant/replication/treatment; for Fruit per Plant: Fruit Number/plant/replication/treatment; for Total Fruit No.: Total Fruit Number/replication/treatment
From the text: The use of exogenously supplied synthetic auxins on agronomic crops to elicit direct non-herbicidal effects was further assessed using genetically-engineered tomato plant lines expressing a synthetic auxin metabolizing gene, and non-genetically-engineered controls. Tomato was utilized to model fruit retention (fruit set) and fruit yield. The transgenic tomato line was utilized in the T2 generation with the transgene fixed in a homozygous fashion. The tomato genotype UC82L was utilized as the control, as well as the background for tranformation with the pPZP211-PNPT-311-SAD2 binary plasmid. This genotype was chosen because it is more likely to closely approximate the behavior of field-grown tomatoes than some short-life-cycle laboratory strains of tomato.
In the same manner as for tobacco, the research was conducted in a single phase entailing characterization of response variables when plants were subjected to the maximum (1× rate=1 pound/acre of active ingredient) and low (¼×=4 ounces/acre of active ingredient) rates of exogenously applied 2,4-D. The overall experimental design was comprised of three parallel completely randomized designs with spray rate and genotype as the main factors. Three replications were performed for each treatment within each experiment. Each replication was the average of three plants that were harvested over a period of 60 days. Fruit number, fruit weight and flower number were measured directly, with average fruit weight and average fruit per plant being derived by dividing fruit weight and fruit number within a replication by the number of plants (3). Tomato fruit yield was measured on fresh fruit and recorded in grams.
Non-transgenic and transgenic seed were germinated and grown as described in Example 1 for tobacco. The transgenic tomato line was utilized in the T2 generation with the transgene fixed in a homozygous fashion.
The plants with 4 fully-extended leaves retained were sprayed as described in Example 1. Each replication (3 plants) was sprayed independently and permitted to dry before being moved back to the greenhouse for further growth for 60 days.
Fruit number, fruit weight, and flower number were measured directly during this 60-day period. Tomato fruit yield was measured on fresh fruit and recorded in grams.

SMILES: O=C(O)COc1ccc(Cl)cc1Cl [2,4-D, 2,4-dichlorophenoxyacetic acid]
- Plant Yield ([1]; 2,4-D rate 1X (1 pound active ingredient/acre)): 27.7 grams/plant/replication/treatment
- Percent Leaf Yield ([1]; 2,4-D rate 1X): 33.2%
- Corrected Leaf Yield ([1]; 2,4-D rate 1X): 9.4 grams/plant/replication/treatment
- Corrected Plant Yield ([1]; 2,4-D rate 1X): 28.2 grams/plant/replication/treatment
- Leaf Yield ([1]; 2,4-D rate 1X): 9.0 grams/plant/replication/treatment
- Plant Yield ([1]; 2,4-D rate ¼X (4 ounces active ingredient/acre)): 33.1 grams/plant/replication/treatment
- Percent Leaf Yield ([1]; 2,4-D rate ¼X): 35.2%
- Corrected Leaf Yield ([1]; 2,4-D rate ¼X): 12.2 grams/plant/replication/treatment
- Corrected Plant Yield ([1]; 2,4-D rate ¼X): 34.3 grams/plant/replication/treatment
- Leaf Yield ([1]; 2,4-D rate ¼X): 11.0 grams/plant/replication/treatment
- tolerance of plants to the herbicide [2]: tolerant
- Total Yield (Fresh Fruit Yield) ([3]; spray rate 1X (1 pound active ingredient/acre), 2,4-D isooctyl ester formulation): 35.3 grams/plant/replication/treatmen
- Fruit Weight (Average Fresh Fruit Weight) ([3]; spray rate 1X): 14.1 grams/fruit/plant/replication/treatment
- Total Flowers ([3]; spray rate 1X): 4.3
- Fruit per Plant ([3]; spray rate 1X): 0.6
- Total Fruit No. ([3]; spray rate 1X): 2.3
- Total Yield (Fresh Fruit Yield) ([3]; spray rate ¼X (4 ounces active ingredient/acre), 2,4-D isooctyl ester formulation): 66.1 grams/plant/replication/treatmen
- Fruit Weight (Average Fresh Fruit Weight) ([3]; spray rate ¼X): 26.0 grams/fruit/plant/replication/treatment
- Total Flowers ([3]; spray rate ¼X): 6.0
- Fruit per Plant ([3]; spray rate ¼X): 0.8
- Total Fruit No. ([3]; spray rate ¼X): 3.0
- effect on average fruit weight ([3]; control line, ¼× rate): increase in average fruit weight
- effect on total flower number ([3]; control material, ¼× rate): reducing the number of flowers

— patent US20070225171A1 (priority 2001, published 2007)
